Our source for the viability and cell viability values is patent US20250082687A1, “COMPOSITION FOR IMPROVING MEMORY OR COGNITIVE ABILITY, OR PREVENTING OR TREATING BRAIN NEUROLOGICAL DISEASE, COMPRISING PORCINE BRAIN ENZYME HYDROLYSATE” (UNIMED PHARMACEUTICALS INC., priority 2022, published 2025).

Where a SMILES comes first, the peptide text is derived from it. Some results are limits rather than exact numbers.

The nature of data set [1]: Cytotoxicity of peptides (MTT cell viability). The format is cell-based, human. Particulars: human, SH-SY5Y cells, all tested concentrations (0.4˜40 ug/ml). As to the method:
(§1) SH-SY5Y cells, a human neuronal cell line, were obtained from the Korean Cell Line Bank (Cat No. 22266) and were cultured in Roswell Park Memorial Institute (RPMI) 1640 Medium (RPMI 1640, Cytiba) medium containing 10% fetal bovine serum (FBS, Cytiba) and 100 IU/ml penicillin and 100 μg/ml streptomycin in a 5% CO2, 37° C. incubator.
(§2) The human neuronal cell line SH-SY5Y was cultured and various concentrations of porcine brain enzyme hydrolysate-derived peptides were added to determine cell viability by MTT (methylthiazol tetrazolium bromide, Sigma Aldrich). Cells were seeded in appropriate amounts (1×10^5/well) in each well of a 24 well plate (BD, Falcon), treated with each concentration, and cell viability was determined after 48 hours of incubation in a 37° C. incubator. After 4 hours of reaction with MTT solution, the insoluble formazan crystals were dissolved by adding 400 μl of DMSO and the absorbance was measured with an ELISA reader (TECAN, Infinite M200 pro) at a wavelength of 570 nm.

Data set [2] concerns SH-SY5Y cells. Description: Cytotoxicity of peptides (MTT cell viability). The format is cell-based, human. Particulars: 40 ug/mL (w/v), 48 hours. As to the method:
as §1, §2

As to `CC[C@H](C)[C@H](NC(=O)[C@H](CO)NC(=O)[C@@H]1CCCN1)C(=O)N[C@@H](CO)C(=O)O` [brPEP-1, PSIS] (H-PSIS-OH), the viability at 48 h in data set [1] was above 90%. In addition, in data set [2], the cell viability was 93.05%±2.23%.
Regarding `C[C@H](NC(=O)[C@@H]1CCCN1C(=O)CN)C(=O)NCC(=O)N1CCC[C@H]1C(=O)N[C@@H](CCC(N)=O)C(=O)NCC(=O)N1CCC[C@H]1C(=O)N[C@@H](CCCNC(=N)N)C(=O)O` [brPEP-2, GPAGPQGPR], the viability at 48 h in data set [1] was above 90%. Moreover, in data set [2], the cell viability is on record as 108.47%±5.20%.
